Assay [1] has as its system mice fed a high fat diet for 20 weeks. Nature of the assay: Bromocriptine and GBR 12909, alone and combined, in high fat diet mice (Example 12). It counts as in vivo. To be noted: bromocriptine 5 mg/kg, GBR 12909 5 mg/kg. The protocol: The effects of adding GBR (a selective dopamine reuptake inhibitor) to bromocriptine (a dopamine D2 receptor agonist that can reduce central norepinephrine neuronal activity) in an effort to circumvent the impact of the D2 receptor agonist effect to reduce endogenous dopamine and to therefore improve metabolic disorders was examined in mice fed a high fat diet for 20 weeks and then treated with either vehicle, bromocriptine (BC) (5 mg/kg), GBR 12909 (5 mg/kg) or bromocriptine (5 mg/kg) plus GBR 12909 (5 mg/kg). […] Again, increasing central dopaminergic neuronal activity and decreasing central norepinephrine neuronal activity simultaneously produces synergistic reductions in metabolic disorders. […] BC alone had no effect on plasma insulin level (FIG. 21).

In assay [2] the test system is Female ob/ob obese diabetic mice. Nature of the assay: Bromocriptine and GBR 12909, alone and combined, 14 days in ob/ob mice (Example 8). It is filed as in vivo. To be noted: bromocriptine 10 mg/kg, GBR 12909 20 mg/kg, daily 14 days, FIG. 10. The procedure:
The effects of adding GBR (a selective dopamine reuptake inhibitor) to bromocriptine (a dopamine D2 receptor agonist that can reduce central norepinephrine neuronal activity) in an effort to circumvent the impact of the D2 receptor agonist effect to reduce endogenous dopamine and to therefore improve metabolic disorders was examined in ob/ob mice treated with either vehicle, bromocriptine (BC) (10 mg/kg), GBR 12909 (20 mg/kg) or bromocriptine (10 mg/kg) plus GBR 12909 (20 mg/kg). Female ob/ob obese diabetic mice were fed standard chow and different groups of animals (n=5-7 group) were treated daily for 14 days with bromocriptine (to reduce norepinephrine neuronal activity) (10 mg/kg), GBR 12909 (to increase dopaminergic neuronal activity) (20 mg/kg) or with bromocriptine (10 mg/kg) plus GBR 12909 (20 mg/kg), or vehicle. […] BC had no effect on blood glucose level. The BC/GBR effect on blood glucose level was more than additive of the individual effects of BC and GBR combined (FIG. 10)

The results in this text go back to US9655865B2, “Therapeutic treatment for metabolic syndrome, type 2 diabetes, obesity, or prediabetes” (VeroScience, LLC, priority 2002, dated 2017).

With `CC(C)C[C@H]1C(=O)N2CCC[C@H]2[C@]2(O)O[C@](NC(=O)[C@@H]3C=C4c5cccc6[nH]c(Br)c(c56)C[C@H]4N(C)C3)(C(C)C)C(=O)N12` [bromocriptine], the plasma insulin level result in assay [1] (FIG. 21) is listed as “no effect”. For the same compound, the “HOMA-IR (insulin resistance)” value in assay [1] (FIG. 22) was “no significant effect”. The blood glucose level entry in assay [2] is “no effect”.
